Data as given in patent US20050130986A1, “Treatment of spondylarthropathies” (priority 2003, published 2005).
“Also recorded” adds a separate entry of the source.

Assays:
[1] = test system: patient with severe spondyloarthropathy; experiment: Findings in a patient with severe spondyloarthropathy (Example 1, 18 month treatment); type: in vivo, human; conditions: for efficacy of previous anti-rheumatic medication: patient history, used alone and in various combinations
Excerpt: The patient is a person who has radiologically verified bilateral sacroilitis and disease of large joints. They are also positive for the HLA-B27 antigen. The patient fulfills the ESSG criteria and the Amor criteria for spondylarthorpathy. […] In addition they have had symptoms also in small peripheral joints such as fingers and toes. […] The previous anti-rheumatic medication has included methotrexate, cyclosporine, infliximab, intramusclar.
During the study the vital signs and blood chemistry was controlled first weekly, then biweekly and after three months once per month.
No corticosteroid injections are given.

[2] = test system: spondylarthropathy; conditions: cited from earlier work; for efficacy observed in spondylarthropathy: mainly in the treatment of peripheral arthritis
[3] = test system: patient with psoriasis arthropathy

Cn1cnc([N+](=O)[O-])c1Sc1ncnc2nc[nH]c12 [azathioprine, reference compound]
efficacy of previous anti-rheumatic medication [1]: inefficient

CN(Cc1cnc2nc(N)nc(N)c2n1)c1ccc(C(=O)N[C@@H](CCC(=O)O)C(=O)O)cc1 [methotrexate, reference compound]
efficacy in sporiasis arthropathy ([2]; in vivo): some efficacy | efficacy observed in spondylarthropathy [2]: minor efficacy | efficacy of previous anti-rheumatic therapy ([3]; patient history, methotrexate 20 mg per week, cyclosporine 150 mg, discontinued): lack of efficacy | efficacy of previous anti-rheumatic medication [1]: inefficient

infliximab
efficacy of previous anti-rheumatic medication [1]: inefficient

Cc1oncc1C(=O)Nc1ccc(C(F)(F)F)cc1 [leflunomide, reference compound]
efficacy of previous anti-rheumatic medication [1]: inefficient

O=C(O)c1cc(/N=N/c2ccc(S(=O)(=O)Nc3ccccn3)cc2)ccc1O [sulfasalazine]
efficacy observed in spondylarthropathy [2]: minor efficacy

Cc1ccc(NC(=O)c2ccc(CN3CCN(C)CC3)cc2)cc1Nc1nccc(-c2cccnc2)n1 [study drug, 4-[(4-methyl-1-piperazin-1-ylmethyl)-N-[4-methyl-3-[4-(3-pyridinyl)-2-pyrimidinyl]amino]phenyl]benzamide Monomethanesulfonate]
side effects or infections during the treatment ([3]; 3 month study): No serious side effects or infections; also recorded: slight tiredness and mild muscle cramps | number of swollen joints ([3]; after three month treatment, from 5, oral, up to 400 mg per day, added to naproxen, injected joints omitted): 2 | BASDAI score ([3]; after three month treatment, from 6.5): 3.1 | number of tender joints ([3]; after three month treatment, from 10): 0 | general pain (VAS) ([3]; after three month treatment, from 33 mm): 12 mm | night pain experienced by the patient (VAS) ([3]; after three month treatment, from 34 mm): 4 mm | ESR ([3]; after three month treatment, from 40): 12 | disease activity (VAS) ([3]; after three month treatment, from 41 mm): 23 mm | CRP ([3]; after three month treatment, from 47): 25 | infections during the treatment ([1]; 18 months of treatment): no significant infections | swollen joint count ([1]; after 18 month treatment, 31 before treatment, oral, up to 400 mg per day, added to hydroxychloroquine, prednisone, ibuprofen): 5 | side effects ([1]; after 18 months of treatment): no serious side effects have been observed; also recorded: slight dryness of the skin | health assessment questionnaire score (HAQ) ([1]; after 18 months of treatment, 1.5 before treatment, high score = high disability): 0.75 | time after start at which antirheumatic effect could be observed (movements in shoulder joints improved) ([1]; after study drug was started): two | CRP ([1]; after the treatment (18 months), 42 mg/L before treatment): 11 mg/L | tender joint count ([1]; after the treatment (18 months), 10 before treatment): 1 | erythrocyte sedimentation rate ([1]; after the treatment (18 months), 28 mm/h before treatment): 11 mm/h | pain experienced by the patient, visual analogue scale (VAS) ([1]; after treatment (18 months), 37 mm before treatment): 11 mm | disease activity as estimated by the patient (VAS) ([1]; after treatment (18 months), 69 mm before treatment): 11 mm
